Experimental findings from patent publication US20250122155A1, “NOVEL INDOLE DERIVATIVE, PHARMACEUTICAL COMPOSITION COMPRISING SAME, AND USE THEREOF” (MITOIMMUNE THERAPEUTICS INC., priority 2021, published 2025) are described below.

Where only a bound is given, the exact number is not on record here.

The test concerns H9C2 cells. Kind of test: Protective effect on heart cells against t-BHP (LDH release). Format: cell-based. The settings on record: H9C2, t-BHP 400 μM, 2 hours, read-out: EC50 (μM), Cell Protection Effect against t-BHP in Heart Cells. On the procedure:
In order to identify the protective effect with regard to heart cells, H9C2 cells were divided into 96-well plates by 1.5×10^4, and cultured for 24 hours. The respective wells were treated with compounds of the examples 3× serial diluted to final concentrations of 30, 10, 3, 1, 0.3, 0.1, 0.03 and 0.01 μM, then incubated for 15 to 20 minutes. After treating with t-BHP with a final concentration of 400 μM, incubation was performed for 2 hours. To confirm the protective effect of each compound, a Cytotoxicity LDH assay kit [Dojindo; CK12] was used to measure the degree of extracellular secretion of LDH. After 2-hour treatment of the cells with t-BHP was completed, 100 μL each of the supernatant in which the cells were placed was collected and moved to a new 96-well plate. 100 μL/well of the assay buffer included in the kit (same amount as the sample) was added, followed by wrapping with foil and reacting for 30 minutes at room temperature. Observing the change of color in the sample, 50 μL/well of stop solution was added, then an iD3 spectrometer was used to measure absorbance at 490 nm and calculate the EC50 values. The EC50 of the compounds of the examples is preferably no more than 1.0 μM, and more preferably no more than 0.3 μM.
On to `COCCOCc1cc(NC2CCC(O)CC2)c2[nH]c(-c3ccccc3)cc2c1` (single isomer, unassigned) [Example 69-1, 4-((5-((2-methoxyethoxy)methyl)-2-phenyl-1H-indol-7-yl)amino)cyclohexan-1-ol], for which the concentration for a half-maximal effect (EC50) was at most 0.3 µM. Regarding `COCCOCc1cc(NC2CCC(O)CC2)c2[nH]c(-c3ccccc3)cc2c1` (single isomer, unassigned) [Example 69-2, 4-((5-((2-methoxyethoxy)methyl)-2-phenyl-1H-indol-7-yl)amino)cyclohexan-1-ol], the concentration for a half-maximal effect (EC50) is at most 0.3 µM.

For the compound `COCCOCc1cc(NC2CCC(C)(O)CC2)c2[nH]c(-c3ccccc3)cc2c1` (single isomer, unassigned) [Example 70-1, 4-((5-((2-methoxyethoxy)methyl)-2-phenyl-1H-indol-7-yl)amino)-1-methylcyclohexane-1-ol], the EC50 is at most 0.3 µM. With `COCCOCc1cc(NC2CCC(C)(O)CC2)c2[nH]c(-c3ccccc3)cc2c1` (single isomer, unassigned) [Example 70-2, 4-((5-((2-methoxyethoxy)methyl)-2-phenyl-1H-indol-7-yl)amino)-1-methylcyclohexane-1-ol], the EC50 is at most 0.3 µM. Under `COCCOCc1cc(N(C2CCCC2)C2CCCC2)c2[nH]c(-c3ccccc3)cc2c1` [Example 3, N,N-dicyclopentyl-5-(2-methoxyethoxymethyl)-2-phenyl-1H-indol-7-amine] stands at most 0.3 µM; under `COCCOCc1cc(N2CCOCC2)c2[nH]c(-c3ccccc3)cc2c1` [Example 5, 4-[5-(2-methoxyethoxymethyl)-2-phenyl-1H-indol-7-yl]morpholine], above 1 µM; under `COCCOCc1cc(NC2CCOC2)c2[nH]c(-c3ccccc3)cc2c1` (centres unmarked) [Example 6, 5-(2-methoxyethoxymethyl)-2-phenyl-N-tetrahydrofuran-3-yl-1H-indol-7-amine], at most 0.3 µM. The value for `COCCOCc1cc(NC2COC2)c2[nH]c(-c3ccccc3)cc2c1` [Example 7, 5(2-methoxyethoxymethyl)-N-(oxetane-3-yl)-2-phenyl-1H-indol-7-amine] was at most 0.3 µM. Under `COCCOCc1cc(NC2CCC2)c2[nH]c(-c3ccccc3)cc2c1` [Example 8, N-cyclobutyl-5-(2-methoxyethoxymethyl)-2-phenyl-1H-indol-7-amine] stands at most 0.3 µM. With `COCCOCc1cc(N(C2CCC2)C2CCC2)c2[nH]c(-c3ccccc3)cc2c1` [Example 9, N,N-dicyclobutyl-5-(2-methoxyethoxymethyl)-2-phenyl-1H-indol-7-amine], the concentration for a half-maximal effect (EC50) is at most 0.3 µM. Under `COCCOCc1cc(NC2CCC2)c2c(c1)cc(-c1ccccc1)n2C` [Example 10, N-cyclobutyl-5-(2-methoxyethoxymethyl)-1-methyl-2-phenyl-indol-7-amine] stands 0.3 to 1 µM; under `COCCOCc1cc(NCC(C)(C)C)c2[nH]c(-c3ccccc3)cc2c1` [Example 11, N-(2,2-dimethylpropyl)-5-(2-methoxyethoxymethyl)-2-phenyl-1H-indol-7-amine], at most 0.3 µM. Turning to `COCCOCc1cc(NCC2CCCC2)c2[nH]c(-c3ccccc3)cc2c1` [Example 12, N-(cyclopentylmethyl)-5-(2-methoxyethoxymethyl)-2-phenyl-1H-indol-7-amine], the concentration for a half-maximal effect (EC50) was at most 0.3 µM. `COCCOCc1cc(NC2CCCCC2)c2[nH]c(-c3ccccc3)cc2c1` [Example 13, N-cyclohexyl-5-(2-methoxyethoxymethyl)-2-phenyl-1H-indol-7-amine]: the concentration giving a half-maximal response (EC50) is at most 0.3 µM. The value for `COCCOCc1cc(NC2CCC(F)(F)CC2)c2[nH]c(-c3ccccc3)cc2c1` [Example 14, N-(4,4-difluorocyclohexyl)-5-(2-methoxyethoxymethyl)2-phenyl-1H-indol-7-amine] was at most 0.3 µM.

For `COCCOCc1cc(NCC(C)C)c2[nH]c(-c3ccccc3)cc2c1` [Example 15, N-isobutyl-5-(2-methoxyethoxymethyl)-2-phenyl-1H-indol-7-amine], the EC50 was at most 0.3 µM. Regarding `CCCNc1cc(COCCOC)cc2cc(-c3ccccc3)[nH]c12` [Example 16, 5-(2-methoxyethoxymethyl)-2-phenyl-N-propyl-1H-indol-7-amine], the EC50 is at most 0.3 µM. As for `CCCCNc1cc(COCCOC)cc2cc(-c3ccccc3)[nH]c12` [Example 17, N-butyl-5-(2-methoxyethoxymethyl)-2-phenyl-1H-indol-7-amine], the EC50 is at most 0.3 µM. On to `CCC(CC)CNc1cc(COCCOC)cc2cc(-c3ccccc3)[nH]c12` [Example 18, N-(2-ethylbutyl)-5-(2-methoxyethoxymethyl)-2-phenyl-1H-indol-7-amine], for which the EC50 was at most 0.3 µM. Under `COCCOCc1cc(NCCC(C)C)c2[nH]c(-c3ccccc3)cc2c1` [Example 19, N-isopentyl-5-(2-methoxyethoxymethyl)-2-phenyl-1H-indol-7-amine] stands at most 0.3 µM; under `CCC(C)Nc1cc(COCCOC)cc2cc(-c3ccccc3)[nH]c12` (centres unmarked) [Example 20, 5-(2(methoxyethoxymethyl)-2-phenyl)-N-sec-butyl-1H-indol-7-amine], at most 0.3 µM; under `COCCOCc1cc(NCC2CC2)c2[nH]c(-c3ccccc3)cc2c1` [Example 21], at most 0.3 µM. Regarding `CCCC(C)Nc1cc(COCCOC)cc2cc(-c3ccccc3)[nH]c12` (centres unmarked) [Example 22, 5-(2-methoxyethoxymethyl)-N-(1-methylbutyl)-2-phenyl-1H-indol-7-amine], the 50% effective concentration (EC50) is at most 0.3 µM. As for `CCC(CC)Nc1cc(COCCOC)cc2cc(-c3ccccc3)[nH]c12` [Example 23, N-(1-ethylpropyl)-5-(2-methoxyethoxymethyl)-2-phenyl-1H-indol-7-amine], the concentration giving a half-maximal response (EC50) is at most 0.3 µM. On to `COCCOCc1cc(/N=C(/C)C(F)(F)F)c2[nH]c(-c3ccccc3)cc2c1` [Example 24, (E,Z)-1,1,1-trifluoro-N-[5-(2-methoxyethoxymethyl)-2-phenyl-1H-indol-7-yl]propane-2-imine], for which the half-maximal effective concentration (EC50) was at most 0.3 µM. Consider `COCCOCc1cc(NC(C)C(F)(F)F)c2[nH]c(-c3ccccc3)cc2c1` (centres unmarked) [Example 25, 5-(2-methoxyethoxymethyl)-2-phenyl-N-(2,2,2-trifluoro-1-methyl-ethyl)-1H-indol-7-amine], for which the EC50 is at most 0.3 µM. The value for `COCCOCc1cc(NC(C)C(C)C)c2[nH]c(-c3ccccc3)cc2c1` (centres unmarked) [Example 26, N-(1,2-dimethylpropyl)-5-(2-methoxyethoxymethyl)-2-phenyl-1H-indol-7-amine] was at most 0.3 µM; that for `COCCOCc1cc(NC(C)C)c2[nH]c(-c3ccccc3)cc2c1` [Example 27, N-isopropyl-5-(2-methoxyethoxymethyl)-2-phenyl-1H-indol-7-amine] was at most 0.3 µM. The value for `COCCOCc1cc(NCc2ccccc2)c2[nH]c(-c3ccccc3)cc2c1` [Example 28, N-benzyl-5-(2-methoxyethoxymethyl)-2-phenyl-1H-indol-7-amine] was at most 0.3 µM; that for `COCCOCc1cc(NC2CCN(C(=O)OC(C)(C)C)CC2)c2[nH]c(-c3ccccc3)cc2c1` [Example 29, tert-butyl 4-[[5-(2-methoxyethoxymethyl)-2-phenyl-1H-indol-7-yl]amino]piperidine-1-carboxylate] was at most 0.3 µM; that for `COCCOCc1cc(NC2CCN(S(C)(=O)=O)CC2)c2[nH]c(-c3ccccc3)cc2c1` [Example 31, 5-(2-methoxyethoxymethyl)-N-(1-methylsulfonyl-4-piperidyl)-2-phenyl-1H-indol-7-amine] was at most 0.3 µM. The value for `COCCOCc1cc(NC2CCS(=O)(=O)CC2)c2[nH]c(-c3ccccc3)cc2c1` [Example 32, N-(1,1-dioxothian-4-yl)-5-(2-methoxyethoxymethyl)-2-phenyl-1H-indol-7-amine] was at most 0.3 µM.

Consider `COCCOCc1cc(NC2CC[S+]([O-])CC2)c2[nH]c(-c3ccccc3)cc2c1` (centres unmarked) [Example 33, 5-(2-methoxyethoxymethyl)-N-(1-oxothian-4-yl)-2-phenyl-1H-indol-7-amine], for which the EC50 was at most 0.3 µM. Under `COCCOCc1cc(NC2CCN(C)CC2)c2[nH]c(-c3ccccc3)cc2c1` [Example 34, 5-(2-methoxyethoxymethyl)-N-(1-methyl-4-piperidyl)-2-phenyl-1H-indol-7-amine] stands at most 0.3 µM. Under `CCOCCOCc1cc(NC2CCOCC2)c2[nH]c(-c3ccccc3)cc2c1` [Example 35, 5-(2-ethoxyethoxymethyl)-2-phenyl-N-tetrahydropyran-4-yl-1H-indol-7-amine] stands at most 0.3 µM.

Regarding `CC(C)OCCOCc1cc(NC2CCCC2)c2[nH]c(-c3ccccc3)cc2c1` [Example 37, N-cyclopentyl-5-(2-isopropoxyethoxymethyl)-2-phenyl-1H-indol-7-amine], the EC50 was at most 0.3 µM. Regarding `CC(C)OCCOCc1cc(NC2CCOCC2)c2[nH]c(-c3ccccc3)cc2c1` [Example 38, 5-(2-isopropoxyethoxymethyl)-2-phenyl-Ntetrahydropyran-4-yl-1H-indol-7-amine], the EC50 is at most 0.3 µM. Regarding `COCCOCCOCc1cc(NC2CCOCC2)c2[nH]c(-c3ccccc3)cc2c1` [Example 40, 5-[2-(2-methoxyethoxy)ethoxymethyl]-2-phenyl-N-tetrahydropyran-4-yl-1H-indol-7-amine], the EC50 lay within 0.3 to 1 µM.
